Measured values: patent publication US20260217701A1, “SELECTIVE BET INHIBITORS AND USES THEREOF” (Tay Therapeutics Limited, priority 2022, published 2026)
Values joined by “and” are separate entries in the source; they are usually repeats but may differ in a detail not shown here. Equal values may be shown once.

System: imiquimod-induced psoriasis
Test: Imiquimod-induced psoriasis model
Format: in vivo, mice
Parameters: Spleen Weight / Spleen Weight Ratio: unit not given here
Settings: for PASI Scores: IMI + Deucravacitinib 3 mg/kg; for Mean scores of the presence of erythema on the skin of animals at the area of induction of psoriasis / Mean scores of the presence of induration on the skin of animals at the area of induction of psoriasis / Mean scores of the presence of peeling on the skin of animals at the area of induction of psoriasis: mean ± SEM
Excerpt: Imiquimod-induced psoriasis is a model of psoriasis in mice that induces psoriasis-like dermatitis. The pathology closes resembles human plaque-type psoriasis and is a valuable tool for testing new therapies against psoriasis. […] Compound A was formulated in a 5% DMSO/40% PEG-400/55% (0.9% NaCl w/v water) solution (Table 2F). Experimental groups for the study are outlined in Table 4. Prior to study initiation, the backs of all animals in the study were depilated to allow for induction of psoriasis and monitoring of disease progression.
Once assigned to experimental groups, on Day 1 and continuing through Day 14, topical imiquimod (IMI; Aldara™ containing 5% Imiquimod) was administered to the dorsal depilated animals, and animals in group 1 received topical administration of Excipial® hydrocream (65 mg). […] Clobetasol was applied topically for animals in group 11.
Body weights were recorded three times a week from Day 1 to Day 8, and daily from Day 8 until the study end at Day 15. At termination on D15 the spleen weight ratio was determined. Disease severity was assessed using the psoriasis area severity index (PASI) daily from Day 8 until study completion on Day 15. The PASI score was calculated based on three parameters (presence of erythema, induration of the skin, and peeling of the skin at the area of induction) on a scale of 0 to 4 (0=no more or absence, 1=low, 2=moderate, 3=high, 4=severe). The PASI score for each animal was calculated as the sum of the score of each parameter measured. The score of the use of enrichment (SUE) was also assessed daily from Day 8 to Day 15. At study completion on Day 15, animal behavior was evaluated using an open field to assess distance travelled, number scratching, and licking and rearing performed in 10 minutes. Upon study termination animals were sacrificed, the spleen was excised and weighed, and blood samples were collected. Serum was isolated from the blood sample for cytokine and other biomarker analysis. IL-1B, IL-6, IL-17, and TNF-α assayed using simple plex technique on an ELLA automated immunoassay system. IL-22 and IL-23 were assayed by ELISA.
The imiquimod-induced model of psoriasis was used to assess the efficacy of Compound A in treating psoriasis. […] Treatment started on Day 8 after induction so reference to day 1 of treatment is to Day 8 and day 7 of treatment is to Day 14.

[1] = IMI-psoriasis model, behavioral evaluation D15, 3 mg/kg, individual animals
[2] = IMI-psoriasis model, behavioral evaluation, 3 mg/kg, individual animals
[3] = IMI-psoriasis model, mice, 3 mg/kg, individual animals
[4] = IMI + 3 mg/kg, D8 (before start of treatment)

## Deucravacitinib [reference compound]
3 mg/kg
  symptoms by day 15 (representative images): nearly entirely symptom free
3 mg/kg IP once daily
  PASI-90 (change in PASI score ≥90%) by day 7 of treatment: surpassed PASI-90
IMI + 3 mg/kg, Day 1 (before treatment start on Day 8), individual animals, 3 mg/kg, in g (unit assumed)
  Body Weight D1: 18.26 and 17.37 and 16.82 and 17.07 and 16.32 and 18.04 and 16.47 and 17.58
IMI + 3 mg/kg, Day 3 (before treatment start on Day 8), individual animals, 3 mg/kg, in g (unit assumed)
  Body Weight D3: 16.20 and 16.31 and 14.76 and 15.24 and 15.52 and 15.99 and 14.97 and 15.55
IMI + 3 mg/kg, Day 5 (before treatment start on Day 8), individual animals, 3 mg/kg, in g (unit assumed)
  Body Weight D5: 18.16 and 16.94 and 15.74 and 15.23 and 15.99 and 17.09 and 14.94 and 16.50
IMI + 3 mg/kg, Day 7 (before treatment start on Day 8), individual animals, 3 mg/kg, in g (unit assumed)
  Body Weight D7: 17.33 and 17.08 and 15.79 and 15.48 and 16.18 and 17.55 and 15.22 and 16.65
IMI + 3 mg/kg, Day 8 (first day of treatment), individual animals, 3 mg/kg, in g (unit assumed)
  Body Weight D8: 17.09 and 17.16 and 15.63 and 15.50 and 15.52 and 17.05 and 14.52 and 15.81
IMI + 3 mg/kg, Day 9, individual animals, 3 mg/kg, in g (unit assumed)
  Body Weight D9: 16.60 and 16.54 and 15.63 and 15.57 and 16.01 and 16.79 and 14.75 and 13.93
IMI + 3 mg/kg, Day 10, individual animals, 3 mg/kg, in g (unit assumed)
  Body Weight D10: 16.71 and 16.43 and 16.08 and 15.84 and 14.94 and 16.16 and 14.20
IMI + 3 mg/kg, Day 11, individual animals, 3 mg/kg, in g (unit assumed)
  Body Weight D11: 17.38 and 15.87 and 15.51 and 15.55 and 16.43 and 14.72
IMI + 3 mg/kg, Day 12, individual animals, 3 mg/kg, in g (unit assumed)
  Body Weight D12: 17.70 and 15.90 and 15.59 and 15.82 and 17.15 and 15.06
IMI + 3 mg/kg, Day 13, individual animals, 3 mg/kg, in g (unit assumed)
  Body Weight D13: 17.75 and 16.24 and 15.77 and 15.95 and 16.97 and 14.52
IMI + 3 mg/kg, Day 14, individual animals, 3 mg/kg, in g (unit assumed)
  Body Weight D14: 18.00 and 16.31 and 15.59 and 16.06 and 17.07 and 15.08
IMI + 3 mg/kg, Day 15, individual animals, 3 mg/kg, in g (unit assumed)
  Body Weight D15: 18.03 and 16.39 and 16.00 and 16.29 and 17.17 and 15.22
IMI + 3 mg/kg, body weight change Day 1 to Day 8 (before treatment), individual animals, 3 mg/kg
  MBWC D1-D8: −1.17 and −0.21 and −1.19 and −1.57 and −0.80 and −0.99 and −1.95 and −1.77
IMI + 3 mg/kg, body weight change Day 8 to Day 15 (treatment period), individual animals, 3 mg/kg
  MBWC D8-D15: 0.94 and 0.76 and 0.50 and 0.77 and 0.12 and 0.70
D8 (day treatment started), individual animals
  PASI Scores: 6 (3×) and 7 and 10 and 8 (3×)
D9, individual animals
  PASI Scores: 7 (3×) and 6 (4×) and 8
D10, individual animals
  PASI Scores: 6 (6×) and 7
D11, individual animals
  PASI Scores: 6 (3×) and 5 (2×) and 4
D12, individual animals
  PASI Scores: 4 (2×) and 3 (4×)
D13, individual animals
  PASI Scores: 2 (3×) and 0 (2×) and 4
D14, individual animals
  PASI Scores: 1 (4×) and 0 and 2
D15, individual animals
  PASI Scores: 1 (2×) and 0 (4×)
IMI-psoriasis model, D1, 3 mg/kg, per cage (two animals)
  Use Enrichment D1: 4.0
IMI-psoriasis model, D10, 3 mg/kg, per cage (two animals)
  Use Enrichment D10: 0.0
IMI-psoriasis model, D14, 3 mg/kg, per cage (two animals)
  Use Enrichment D14: 3.0 and 3.5 and 2.0
IMI-psoriasis model, D15, 3 mg/kg, per cage (two animals)
  Use Enrichment D15: 4.0 and 2.0
[1]
  Number Licking: 1 and 2 (2×) and 7 and 8
  Number Licking + Scratching: 2 (3×) and 10 and 20
  Number Scratching: 1 and 0 (2×) and 3 and 12
[2]
  Distance Traveled: 14 m (2×) and 9 m and 19 m and 12 m
  Number Rearings: 31 and 22 and 58 and 68 and 38
IMI-psoriasis model, mean D1-D8, 3 mg/kg, per cage (two animals)
  Use Enrichment Mean D1-D8: 2.50 and 2.00
[3]
  Spleen Weight: 195.00 and 187.27 and 171.30 and 177.57 and 171.11 and 127.21
  Spleen Weight Ratio: 1081.53 and 1142.59 and 1070.63 and 1090.06 and 996.56 and 835.81
[4]
  Mean scores of the presence of erythema on the skin of animals at the area of induction of psoriasis: 2.1 ± 0.1
  Mean scores of the presence of induration on the skin of animals at the area of induction of psoriasis: 2.8 ± 0.3
  Mean scores of the presence of peeling on the skin of animals at the area of induction of psoriasis: 2.5 ± 0.2
IMI + 3 mg/kg, D9
  Mean scores of the presence of erythema on the skin of animals at the area of induction of psoriasis: 2.1 ± 0.1
  Mean scores of the presence of induration on the skin of animals at the area of induction of psoriasis: 2.4 ± 0.2
  Mean scores of the presence of peeling on the skin of animals at the area of induction of psoriasis: 2.1 ± 0.1
IMI + 3 mg/kg, D10
  Mean scores of the presence of erythema on the skin of animals at the area of induction of psoriasis: 2.3 ± 0.2
  Mean scores of the presence of induration on the skin of animals at the area of induction of psoriasis: 2.0 ± 0.2
  Mean scores of the presence of peeling on the skin of animals at the area of induction of psoriasis: 1.9 ± 0.1
IMI + 3 mg/kg, D11
  Mean scores of the presence of erythema on the skin of animals at the area of induction of psoriasis: 1.8 ± 0.4
  Mean scores of the presence of induration on the skin of animals at the area of induction of psoriasis: 1.5 ± 0.2
  Mean scores of the presence of peeling on the skin of animals at the area of induction of psoriasis: 2.0 ± 0.3
IMI + 3 mg/kg, D12
  Mean scores of the presence of erythema on the skin of animals at the area of induction of psoriasis: 1.8 ± 0.2
  Mean scores of the presence of induration on the skin of animals at the area of induction of psoriasis: 0.5 ± 0.2
  Mean scores of the presence of peeling on the skin of animals at the area of induction of psoriasis: 1.0 ± 0.0
IMI + 3 mg/kg, D13
  Mean scores of the presence of erythema on the skin of animals at the area of induction of psoriasis: 0.8 ± 0.3
  Mean scores of the presence of induration on the skin of animals at the area of induction of psoriasis: 0.0 ± 0.0
  Mean scores of the presence of peeling on the skin of animals at the area of induction of psoriasis: 0.8 ± 0.3
IMI + 3 mg/kg, D14
  Mean scores of the presence of erythema on the skin of animals at the area of induction of psoriasis: 0.2 ± 0.2
  Mean scores of the presence of induration on the skin of animals at the area of induction of psoriasis: 0.0 ± 0.0
  Mean scores of the presence of peeling on the skin of animals at the area of induction of psoriasis: 0.8 ± 0.2
IMI + 3 mg/kg, D15
  Mean scores of the presence of erythema on the skin of animals at the area of induction of psoriasis: 0.0 ± 0.0
  Mean scores of the presence of induration on the skin of animals at the area of induction of psoriasis: 0.0 ± 0.0
  Mean scores of the presence of peeling on the skin of animals at the area of induction of psoriasis: 0.3 ± 0.2
mice, IMI + 3 mg/kg, D8 (before start of treatment)
  Mean PASI Scores in IMI-Psoriasis Model: 7.4 ± 0.5
mice, IMI + 3 mg/kg, D9
  Mean PASI Scores in IMI-Psoriasis Model: 6.6 ± 0.3
mice, IMI + 3 mg/kg, D10
  Mean PASI Scores in IMI-Psoriasis Model: 6.1 ± 0.1
mice, IMI + 3 mg/kg, D11
  Mean PASI Scores in IMI-Psoriasis Model: 5.3 ± 0.3
mice, IMI + 3 mg/kg, D12
  Mean PASI Scores in IMI-Psoriasis Model: 3.3 ± 0.2
mice, IMI + 3 mg/kg, D13
  Mean PASI Scores in IMI-Psoriasis Model: 1.7 ± 0.6
mice, IMI + 3 mg/kg, D14
  Mean PASI Scores in IMI-Psoriasis Model: 1.0 ± 0.3
mice, IMI + 3 mg/kg, D15
  Mean PASI Scores in IMI-Psoriasis Model: 0.3 ± 0.2
Relative to vehicle-treated psoriasis animals
  use of enrichment (nesting): about half that seen with Compound A
